Data set [1] deals with Human alphaherpesvirus 3. In words: Antiviral activity against thymidine-kinase expressing Varicella zoster virus wild type strain OKA infected in human HEL cells assessed as reduction in plaque formation measured after 3 days. It is filed as functional, organism-based. Conditions: Human alphaherpesvirus 3, OKA, 72 h.
For a further data set, the system named is Vaccinia virus. As to the kind of experiment: Antiviral activity against Vaccinia virus […] infected in human HEL cells assessed as reduction in plaque formation measured after 3 days. Type of data set: functional, organism-based. As to conditions: Orthopoxvirus vaccinia, 72 h.
The nature of data set [2]: Cytostatic activity against human HEL cells assessed as reduction in cell growth measured after 24 hrs. It is filed as toxicity, cell-based.
Data set [3] in a line: Cytotoxicity against human HEL cells assessed as microscopically detectable alterations in cell morphology measured after 24 hrs. Type of data set: toxicity, cell-based. As to conditions: read-out: MCC50.
The subject of data set [4] is Human alphaherpesvirus 3. As to the kind of experiment: Antiviral activity against thymidine-kinase deficient acyclovir-resistant Varicella zoster virus strain YS/R infected in human HEL cells assessed as reduction in plaque formation measured after 3 days. It is filed as functional, organism-based. As to conditions: Human alphaherpesvirus 3, YS/R, 72 h.
For data set [5], the system named is Human alphaherpesvirus 1. As to the kind of experiment: Antiviral activity against thymidine-kinase expressing human herpes virus type 1 KOS infected in human HEL cells assessed as reduction in plaque formation measured after 3 days. Conditions: Human alphaherpesvirus 1, KOS, 72 h. It is filed as functional, organism-based.
Data set [6] deals with Human alphaherpesvirus 3. In words: Antiviral activity against thymidine-kinase deficient acyclovir-resistant Varicella zoster virus strain 07/1 infected in human HEL cells assessed as reduction in plaque formation measured after 3 days. As to conditions: Human alphaherpesvirus 3, 07/1, HEL, 72 h. It is filed as functional, organism-based.
The test system of data set [7] is Cytomegalovirus. In words: Antiviral activity against human cytomegalovirus strain Davis infected in human HEL cells assessed as reduction in virus-induced cytopathic effect measured after 3 days. It is filed as functional, organism-based. Conditions: Human betaherpesvirus 5, Davis, 72 h. In general terms: Cytopathic effects are the visible damage that an infection or toxin causes in cultured cells.

A further data set relates to Human alphaherpesvirus 2. As to the kind of experiment: Antiviral activity against human herpes virus type 2 strain 07/1 infected in human HEL cells assessed as reduction in plaque formation measured after 3 days. Type of data set: functional, organism-based. Conditions: Human alphaherpesvirus 2, 07/1, HEL, 72 h.
In data set [8] the test system is Cytomegalovirus. As to the kind of experiment: Antiviral activity against human cytomegalovirus strain AD-169 infected in human HEL cells assessed as reduction in virus-induced cytopathic effect measured after 3 days. It is filed as functional, organism-based. As to conditions: Human betaherpesvirus 5, AD-169, HEL, 72 h.
Data set [9] has as its system Human alphaherpesvirus 1. In words: Antiviral activity against thymidine-kinase deficient acyclovir-resistant human herpes virus type 1 infected in human HEL cells assessed as reduction in plaque formation measured after 3 days. Type of data set: functional, organism-based. Conditions: Human alphaherpesvirus 1, HEL, 72 h.
For data set [10], the system named is Human alphaherpesvirus 3. As to the kind of experiment: Antiviral activity against thymidine-kinase expressing Varicella zoster virus wild type strain YS infected in human HEL cells assessed as reduction in plaque formation measured after 3 days. It is filed as functional, organism-based. As to conditions: Human alphaherpesvirus 3, YS, 72 h.
Data set [11] is described as follows: Selectivity index, ratio of CC50 for human HEL cells to EC50 for Vaccinia virus […]. It is filed as toxicity. As to conditions: read-out: Selectivity Index.
Data set [12] in a line: Selectivity index, ratio of CC50 for human HEL cells to EC50 for thymidine-kinase deficient acyclovir-resistant human herpes virus type 1. It is filed as toxicity. Conditions: read-out: Selectivity Index.
Data set [13] in a line: Selectivity index, ratio of CC50 for human HEL cells to EC50 for thymidine-kinase deficient acyclovir-resistant Varicella zoster virus. As to conditions: read-out: Selectivity Index. It is filed as toxicity.

As to `O=c1[nH]c(=O)n([C@H]2C[C@H](O)[C@@H](CO)O2)cc1/C=C/Br` [BRIVUDINE], the values for the 50% effective concentration (EC50) in the data set on Human alphaherpesvirus 3 [1], in the data set on Vaccinia virus and in the data set on Human alphaherpesvirus 3 [4] were 9 nM, 5.8 µM and 85 µM, respectively. For the same molecule, the 50% cytotoxic concentration (CC50) (in general, the concentration that lowers cell viability or growth by half) at 24 h in [2] is above 150 µM. Further, in data set [3], the MCC at 24 h is above 150 µM.

As to `CC(C)OC(=O)OCOP(=O)(C/C=C/COc1cc(N)nc(N)n1)OCOC(=O)OC(C)C`, the EC50 (as a rule, the concentration that produces a half-maximal response) with Human alphaherpesvirus 3 [1] is 860 nM; in the data set on Human alphaherpesvirus 1 [5] it was 3750 nM; in the data set with Human alphaherpesvirus 3 [6] it was 1250 nM; in the data set with Cytomegalovirus [7], 36.6 µM; in the data set with Human alphaherpesvirus 2 it was 1800 nM; in the data set on Cytomegalovirus [8] it was 44.7 µM. Further, the EC50 in the data set with Human alphaherpesvirus 1 [9] amounted to 5.75 µM. Moreover, the CC50 at 24 h in [2] was above 100 µM. In addition, the MCC at 24 h in data set [3] was above 100 µM.

For `CC(C)(C)C(=O)OCOP(=O)(C/C=C/COc1cc(N)nc(N)n1)OCOC(=O)C(C)(C)C`, the 50% effective concentration (EC50) in the data set on Human alphaherpesvirus 3 [1] turned out to be 800 nM; in the data set with Human alphaherpesvirus 1 [5] it was 13400 nM; in the data set with Vaccinia virus, 32.5 µM; in the data set with Human alphaherpesvirus 3 [10], 2400 nM; with Human alphaherpesvirus 3 [6], 1400 nM; with Cytomegalovirus [7], 44.7 µM. Moreover, the concentration for a half-maximal effect (EC50) in the data set on Human alphaherpesvirus 2 was 13400 nM; with Cytomegalovirus [8], 44.7 µM; with Human alphaherpesvirus 1 [9] it was 13.4 µM; in the data set with Human alphaherpesvirus 3 [4], 1.7 µM. Further, the CC50 at 24 h in [2] came to 5.1 µM. Further, the MCC at 24 h in data set [3] was above 100 µM.

In the case of `CC(=O)OCC(=CCP(=O)(OCOC(=O)C(C)(C)C)OCOC(=O)C(C)(C)C)COc1cc(N)nc(N)n1`, the EC50 with Human alphaherpesvirus 3 [1] was 140 nM; in the data set with Human alphaherpesvirus 1 [5] it was 600 nM; in the data set on Vaccinia virus, 2.9 µM; in the data set on Human alphaherpesvirus 3 [10], 360 nM; in the data set with Human alphaherpesvirus 3 [6], 120 nM; with Cytomegalovirus [7] it was 4.06 µM. Besides, the EC50 was 1100 nM in the data set with Human alphaherpesvirus 2, 8.56 µM in the data set with Cytomegalovirus [8], 0.6 µM in the data set on Human alphaherpesvirus 1 [9] and 0.18 µM in the data set on Human alphaherpesvirus 3 [4]. Also, the CC50 at 24 h in data set [2] was 2.03 µM. Also, the MCC at 24 h in data set [3] is 100 µM.

Take `Nc1nc2c(ncn2COCCO)c(=O)[nH]1` [ACYCLOVIR]: the results for the EC50 with Vaccinia virus and in the data set on Human alphaherpesvirus 3 [4] were above 250 µM and 66 µM, respectively. The CC50 at 24 h in [2] was 470 µM. The MCC at 24 h in data set [3] is above 300 µM.

On to `Nc1ccn(C[C@@H](CO)OCP(=O)(O)O)c(=O)n1` [CIDOFOVIR ANHYDROUS], for which the figures for the 50% effective concentration (EC50) with Vaccinia virus, in the data set with Cytomegalovirus [8] and in the data set with Human alphaherpesvirus 1 [9] were 29 µM, 0.73 µM and 3.8 µM, respectively. Moreover, in [2], the CC50 at 24 h was 64 µM. Further, the MCC at 24 h in [3] is above 350 µM. Besides, in data set [11], the selectivity ratio turned out to be 2.

With `Nc1nc2c(ncn2COC(CO)CO)c(=O)[nH]1` [GANCICLOVIR], the EC50 is above 100 µM in the data set on Vaccinia virus, 60 nM with Human alphaherpesvirus 2 and 7.5 µM in the data set with Cytomegalovirus [8]. Besides, in [2], the CC50 at 24 h stood at 130 µM. For the same molecule, in data set [3], the MCC at 24 h is above 350 µM.

For the molecule `CC(=O)OC/C(=C\CP(=O)(OCOC(=O)OC(C)C)OCOC(=O)OC(C)C)COc1cc(N)nc(N)n1`, the EC50 was 90 nM with Human alphaherpesvirus 3 [1]; 600 nM in the data set on Human alphaherpesvirus 1 [5]; 4.1 µM with Vaccinia virus; 220 nM in the data set with Human alphaherpesvirus 3 [6]; 350 nM in the data set with Human alphaherpesvirus 2; 0.4 µM with Human alphaherpesvirus 1 [9]. For the same molecule, the CC50 at 24 h in [2] turned out to be 15.4 µM. Moreover, in data set [3], the MCC at 24 h is above 100 µM.

As for `CCCCCCCCCCCCCCCCOCCCOP(=O)(C/C=C/COc1cc(N)nc(N)n1)OCOC(=O)OC(C)C` (configuration not stated), the EC50 in the data set with Human alphaherpesvirus 3 [1] was found to be 180 nM; in the data set with Human alphaherpesvirus 1 [5], 39000 nM; in the data set with Human alphaherpesvirus 3 [6], 240 nM; with Cytomegalovirus [7], 7.26 µM; in the data set with Human alphaherpesvirus 2 it was 39000 nM; with Cytomegalovirus [8], 7.08 µM. In the data set on Human alphaherpesvirus 1 [9], the 50% effective concentration (EC50) was determined as 42 µM. Further, the half-maximal cytotoxic concentration (CC50) at 24 h in [2] amounted to 14.5 µM. Also, the MCC at 24 h in data set [3] came out at 100 µM.

On to `CCCCCCCCCCCCCCCCOCCCOP(=O)(C/C=C(\COC(C)=O)COc1cc(N)nc(N)n1)OCOC(=O)OC(C)C` (configuration not stated), for which the EC50 in the data set on Human alphaherpesvirus 3 [1] amounted to 4 nM; with Human alphaherpesvirus 1 [5], 430 nM; in the data set with Vaccinia virus, 0.05 µM; in the data set on Human alphaherpesvirus 3 [6], 18 nM; in the data set on Human alphaherpesvirus 2, 15 nM; in the data set with Cytomegalovirus [8], 0.021 µM. Also, the EC50 with Human alphaherpesvirus 1 [9] amounted to 0.009 µM. Also, the selectivity ratio in [12] is 273; in data set [13], 129; in data set [11] it was 46. Further, in [2], the CC50 at 24 h came out at 2.32 µM. In addition, the MCC at 24 h in [3] was found to be 100 µM.

These data come from ChEMBL document CHEMBL5512660, “Synthesis of LAVR-289, a new [(Z)-3-(acetoxymethyl)-4-(2,4-diaminopyrimidin-6-yl)oxy-but-2-enyl]phosphonic acid prodrug with pronounced antiviral activity against DNA viruses” (Eur J Med Chem, 2024).
